MIC data for 17 compounds are collected here from patent publication US11673910B2, “Macrolides with modified desosamine sugars and uses thereof” (Zikani Therapeutics, Inc., priority 2017, dated 2023).

Common to all, as to assay type: cell-based
One assay relates to E. coli strain MP-4. Briefly: Broth dilution MIC determination (CLSI) against E. coli strain MP-4. The following applies: Escherichia coli, MP4. In a few lines:
(§1)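 MICs were determined by CLSI standard broth dilution. Values are binned: "+++" ≤4 mg/L, "++" ≥8 and <32 mg/L, "+" ≥32 mg/L.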

The subject of assay [1] is K. pneumoniae strain MP-548. Briefly: Broth dilution MIC determination (CLSI) against K. pneumoniae strain MP-548. To be noted: Klebsiella pneumoniae, MP548. In outline:
as §1

Assay [2] has as its system P. aeruginosa strain MP-3. Briefly: Broth dilution MIC determination (CLSI) against P. aeruginosa strain MP-3. The following applies: Pseudomonas aeruginosa, MP3. In outline:
as §1

For assay [3], the system named is A. baumannii strain MP-15. Briefly: Broth dilution MIC determination (CLSI) against A. baumannii strain MP-15. To be noted: Acinetobacter baumannii, MP15. In a few lines: as §1
The next assay has as its system S. aureus strain MP-12. Briefly: Broth dilution MIC determination (CLSI) against S. aureus strain MP-12. The following applies: Staphylococcus aureus, MP12, strain MP-12. In a few lines:
as §1

Values after ≈ are worked out from the molar mass of the structure shown. Bounds are passed on as bounds.

In the case of `CC[C@H]1OC(=O)C(C)C(=O)[C@H](C)[C@@H](OC2OC(CNCC(C)(C)O)CC(N(C)C)C2O)[C@](C)(OC)C[C@@H](C)CN[C@H](C)[C@H]2NC(=O)O[C@@]21C` (stereo partly shown) [Compound 113, 3-Descladinosyl-3-oxo-6-O-methyl-N9a-desmethyl-11,12-dideoxy-12,11-(oxycarbonylimino)-6′-(2-methylpropan-2-ol-amino) Azithromycin], the MIC in the assay with E. coli strain MP-4 was 8 to 32 µg/mL (≈ 11.4 to 45.7 µM); in assay [1], not below 32 µg/mL; in assay [2] it was not below 32 µg/mL; in assay [3], not below 32 µg/mL; with S. aureus strain MP-12, not below 32 µg/mL.

As to `CC[C@H]1OC(=O)C(C)C(=O)[C@H](C)[C@@H](OC2OC(CNCCOC)CC(N(C)C)C2O)[C@](C)(OC)C[C@@H](C)CN[C@H](C)[C@H]2NC(=O)O[C@@]21C` (stereo partly shown) [Compound 114, 3-Descladinosyl-3-oxo-6-O-methyl-N9a-desmethyl-11,12-dideoxy-12,11-(oxycarbonylimino)-6′-(2-methoxyamino) Azithromycin], the minimal inhibitory concentration (MIC) in the assay with E. coli strain MP-4 was not above 4 µg/mL; in assay [1], 8 to 32 µg/mL (≈ 11.6 to 46.6 µM); in assay [2], not below 32 µg/mL; in assay [3], not below 32 µg/mL; against S. aureus strain MP-12, not below 32 µg/mL.

Turning to `CC[C@H]1OC(=O)C(C)C(=O)[C@H](C)[C@@H](OC2OC(CNCCO)CC(N(C)C)C2O)[C@](C)(OC)C[C@@H](C)CN[C@H](C)[C@H]2NC(=O)O[C@@]21C` (stereo partly shown) [Compound 115, 3-Descladinosyl-3-oxo-6-O-methyl-N9a-desmethyl-11,12-dideoxy-12,11-(oxycarbonylimino)-6′-(2-hydroxyethylamino) Azithromycin], the MIC (in the assay with E. coli strain MP-4; in assay [1]; in assay [2]; in assay [3]; in the assay with S. aureus strain MP-12) was not below 32 µg/mL in each case.

For `CC[C@H]1OC(=O)C(C)C(=O)[C@H](C)[C@@H](OC2OC(CNCC(N)=O)CC(N(C)C)C2O)[C@](C)(OC)C[C@@H](C)CN[C@H](C)[C@H]2NC(=O)O[C@@]21C` (stereo partly shown) [Compound 116, 3-Descladinosyl-3-oxo-6-O-methyl-N9a-desmethyl-11,12-dideoxy-12,11-(oxycarbonylimino)-6′-(N-acetamidylamino) Azithromycin], the MIC in the assay with E. coli strain MP-4 is not above 4 µg/mL; in assay [1], not below 32 µg/mL; in assay [2], not below 32 µg/mL; in assay [3], not below 32 µg/mL; with S. aureus strain MP-12 it was not below 32 µg/mL.

Turning to `CC[C@H]1OC(=O)C(C)C(=O)[C@H](C)[C@@H](OC2OC(CNCC(=O)N(C)C)CC(N(C)C)C2O)[C@](C)(OC)C[C@@H](C)CN[C@H](C)[C@H]2NC(=O)O[C@@]21C` (stereo partly shown) [Compound 117, 3-Descladinosyl-3-oxo-6-O-methyl-N9a-desmethyl-11,12-dideoxy-12,11-(oxycarbonylimino)-6′-(N—(N,N-dimethylacetamidyl)-amino) Azithromycin], the MIC (against E. coli strain MP-4; in assay [1]; in assay [2]; in assay [3]; against S. aureus strain MP-12) was not below 32 µg/mL each time.

For `CC[C@H]1OC(=O)C(C)C(=O)[C@H](C)[C@@H](OC2OC(CNC3CC3)CC(N(C)C)C2O)[C@](C)(OC)C[C@@H](C)CN[C@H](C)[C@H]2NC(=O)O[C@@]21C` (stereo partly shown) [Compound 118, 3-Descladinosyl-3-oxo-6-O-methyl-N9a-desmethyl-11,12-dideoxy-12,11-(oxycarbonylimino)-6′-cyclopropylamino Azithromycin], the MIC against E. coli strain MP-4 was not above 4 µg/mL; in assay [1] it was not above 4 µg/mL; in assay [2], not below 32 µg/mL; in assay [3], not below 32 µg/mL; in the assay on S. aureus strain MP-12, 8 to 32 µg/mL (≈ 12 to 47.8 µM).

Regarding `CC[C@H]1OC(=O)C(C)C(=O)[C@H](C)[C@@H](OC2OC(CNC3CCC3)CC(N(C)C)C2O)[C@](C)(OC)C[C@@H](C)CN[C@H](C)[C@H]2NC(=O)O[C@@]21C` (stereo partly shown) [Compound 120, 3-Descladinosyl-3-oxo-6-O-methyl-N9a-desmethyl-11,12-dideoxy-12,11-(oxycarbonylimino)-6′-cyclobutylamino Azithromycin], the MIC against E. coli strain MP-4 was not above 4 µg/mL; in assay [1], not above 4 µg/mL; in assay [2], not below 32 µg/mL; in assay [3] it was not below 32 µg/mL; in the assay on S. aureus strain MP-12, not below 32 µg/mL.

For the compound `CC[C@H]1OC(=O)C(C)C(=O)[C@H](C)[C@@H](OC2OC(CN3CCC3)CC(N(C)C)C2O)[C@](C)(OC)C[C@@H](C)CN[C@H](C)[C@H]2NC(=O)O[C@@]21C` (stereo partly shown) [Compound 121, 3-Descladinosyl-3-oxo-6-O-methyl-N9a-desmethyl-11,12-dideoxy-12,11-(oxycarbonylimino)-6′-(1-azetininyl) Azithromycin], the MIC against E. coli strain MP-4 is 8 to 32 µg/mL (≈ 12 to 47.8 µM); in assay [1] it was not below 32 µg/mL; in assay [2] it was not below 32 µg/mL; in assay [3] it was not below 32 µg/mL; with S. aureus strain MP-12 it was not below 32 µg/mL.

As to `CC[C@H]1OC(=O)C(C)C(=O)[C@H](C)[C@@H](OC2OC(CN3CCCC3)CC(N(C)C)C2O)[C@](C)(OC)C[C@@H](C)CN[C@H](C)[C@H]2NC(=O)O[C@@]21C` (stereo partly shown) [Compound 122, 3-Descladinosyl-3-oxo-6-O-methyl-N9a-desmethyl-11,12-dideoxy-12,11-(oxycarbonylimino)-6′-(1-pyrrolodinyl) Azithromycin], the MIC against E. coli strain MP-4 is not above 4 µg/mL; in assay [1] it was 8 to 32 µg/mL (≈ 11.7 to 46.9 µM); in assay [2] it was not below 32 µg/mL; in assay [3] it was not below 32 µg/mL; in the assay with S. aureus strain MP-12, not below 32 µg/mL.

Consider `CC[C@H]1OC(=O)C(C)C(=O)[C@H](C)[C@@H](OC2OC(CN3CCCCC3)CC(N(C)C)C2O)[C@](C)(OC)C[C@@H](C)CN[C@H](C)[C@H]2NC(=O)O[C@@]21C` (stereo partly shown) [Compound 123, 3-Desdadinosyl-3-oxo-6-O-methyl-N9a-desmethyl-11,12-dideoxy-12,11-(oxycarbonylimino)-6′-(1-piperidinyl) Azithromycin], for which the MIC against E. coli strain MP-4 was not above 4 µg/mL; in assay [1], 8 to 32 µg/mL (≈ 11.5 to 45.9 µM); in assay [2], not below 32 µg/mL; in assay [3], not below 32 µg/mL; against S. aureus strain MP-12 it was not below 32 µg/mL.

In the case of `CC[C@H]1OC(=O)C(C)C(=O)[C@H](C)[C@@H](OC2OC(CN3CCCCCC3)CC(N(C)C)C2O)[C@](C)(OC)C[C@@H](C)CN[C@H](C)[C@H]2NC(=O)O[C@@]21C` (stereo partly shown) [Compound 124, 3-Desdadinosyl-3-oxo-6-O-methyl-N9a-desmethyl-11,12-dideoxy-12,11-(oxycarbonylimino)-6′-(1-azepanyl) Azithromycin], the MIC was not above 4 µg/mL with E. coli strain MP-4; 8 to 32 µg/mL (≈ 11.3 to 45 µM) in assay [1]; not below 32 µg/mL in assay [2]; not below 32 µg/mL in assay [3]; not below 32 µg/mL against S. aureus strain MP-12.

As for `CC[C@H]1OC(=O)C(C)C(=O)[C@H](C)[C@@H](OC2OC(CN3CCN(C(C)=O)CC3)CC(N(C)C)C2O)[C@](C)(OC)C[C@@H](C)CN[C@H](C)[C@H]2NC(=O)O[C@@]21C` (stereo partly shown) [Compound 125, 3-Descladinosyl-3-oxo-6-O-methyl-N9a-desmethyl-11,12-dideoxy-12,11-(oxycarbonylimino)-6′-(1-(4-acetyl)-piperazinyl) Azithromycin], the MIC (against E. coli strain MP-4; in assay [1]; in assay [2]; in assay [3]; in the assay on S. aureus strain MP-12) was not below 32 µg/mL each time.

Regarding `CC[C@H]1OC(=O)C(C)C(=O)[C@H](C)[C@@H](OC2OC(CN3CCN(C)CC3)CC(N(C)C)C2O)[C@](C)(OC)C[C@@H](C)CN[C@H](C)[C@H]2NC(=O)O[C@@]21C` (stereo partly shown) [Compound 126, 3-Descladinosyl-3-oxo-6-O-methyl-N9a-desmethyl-11,12-dideoxy-12,11-(oxycarbonylimino)-6′-(1-(4-methyl)-piperazinyl) Azithromycin], the MIC against E. coli strain MP-4 is not above 4 µg/mL; in assay [1] it was 8 to 32 µg/mL (≈ 11.2 to 44.9 µM); in assay [2], not below 32 µg/mL; in assay [3], not below 32 µg/mL; against S. aureus strain MP-12, not below 32 µg/mL.

As for `CC[C@H]1OC(=O)C(C)C(=O)[C@H](C)[C@@H](OC2OC(CNCC(=O)OC)CC(N(C)C)C2O)[C@](C)(OC)C[C@@H](C)CN[C@H](C)[C@H]2NC(=O)O[C@@]21C` (stereo partly shown) [Compound 127, 3-Descladinosyl-3-oxo-6-O-methyl-N9a-desmethyl-11,12-dideoxy-12,11-(oxycarbonylimino)-6′-(methyl aminomethylcarboxylate) Azithromycin], the MIC was not above 4 µg/mL in the assay with E. coli strain MP-4; 8 to 32 µg/mL (≈ 11.4 to 45.7 µM) in assay [1]; not below 32 µg/mL in assay [2]; not below 32 µg/mL in assay [3]; not below 32 µg/mL with S. aureus strain MP-12.

Take `CC[C@H]1OC(=O)C(C)C(=O)[C@H](C)[C@@H](OC2OC(CN3CC(O)C3)CC(N(C)C)C2O)[C@](C)(OC)C[C@@H](C)CN[C@H](C)[C@H]2NC(=O)O[C@@]21C` (stereo partly shown) [Compound 128, 3-Descladinosyl-3-oxo-6-O-methyl-N9a-desmethyl-11,12-dideoxy-12,11-(oxycarbonylimino)-6′-(3-hydroxy-1-azetidinyl) Azithromycin]: the MIC (in the assay on E. coli strain MP-4; in assay [1]; in assay [2]; in assay [3]; against S. aureus strain MP-12) was not below 32 µg/mL throughout.

For the compound `CC[C@H]1OC(=O)C(C)C(=O)[C@H](C)[C@@H](OC2OC(CN(C)C3CC3)CC(N(C)C)C2O)[C@](C)(OC)C[C@@H](C)CN[C@H](C)[C@H]2NC(=O)O[C@@]21C` (stereo partly shown) [Compound 129, 3-Descladinosyl-3-oxo-6-O-methyl-N9a-desmethyl-11,12-dideoxy-12,11-(oxycarbonylimino)-6′-(N-methylcyclopropylamino) Azithromycin], the MIC against E. coli strain MP-4 is not above 4 µg/mL; in assay [1] it was 8 to 32 µg/mL (≈ 11.7 to 46.9 µM); in assay [2], not below 32 µg/mL; in assay [3], 8 to 32 µg/mL (≈ 11.7 to 46.9 µM); against S. aureus strain MP-12, 8 to 32 µg/mL (≈ 11.7 to 46.9 µM).

Regarding `CC[C@H]1OC(=O)C(C)C(=O)[C@H](C)[C@@H](OC2OC(CNCCN(C)C)CC(N(C)C)C2O)[C@](C)(OC)C[C@@H](C)CN[C@H](C)[C@H]2NC(=O)O[C@@]21C` (stereo partly shown) [Compound 130, 3-Descladinosyl-3-oxo-6-O-methyl-N9a-desmethyl-11,12-dideoxy-12,11-(oxycarbonylimino)-6′-[(2-dimethylamino)ethylamino]Azithromycin], the MIC (with E. coli strain MP-4; in assay [1]; in assay [2]; in assay [3]; in the assay on S. aureus strain MP-12) was not below 32 µg/mL each time.
